# According to patent US20080175837A1, “DPP4 INHIBITOR AND PHARMACEUTICAL USE THEREOF” (AJINOMOTO CO., INC, priority 2005, published 2008):
# Residues, ends and D or L forms follow the SMILES beside them.
# Columns and labels:
# [1] = biological target: T1, recombinant human dipeptidyl peptidase IV (rhDpp4) (Homo sapiens, UniProt P27487); test: Inhibiting activity against rhDpp4 (G-P-pNA cleavage, absorbance at 405 nm); type: biochemical
# T1 construct: purchased R&D Systems 1180-SE
# Procedure: The inhibiting activity of each test compound was determined against the cleaving activity of GLY-PRO-p-nitroanihde (G-P-pNA, by Sigma, #G-0513), which is a synthetic substrate of recombinant human dipeptidyl peptidase IV (rhDpp4, by R&D Systems, #1180-SE). G-P-pNA was cleaved between PRO and pNA by rhDpp4. Since pNA is absorbed at 405 nm, the value thereof was measured to determine the cleavage amount.
# The reaction solution (25 mM Tris (pH8.0), 100 uM G-P-pNA, 0.25 ng/ul rhDPP4) was prepared and added to the test compound so that the final concentration of the test compound became 2 mM (1% DMSO concentration). The reaction solution was kept in 37° C. for 30 minutes. After that, the absorbance at 405 nm was measured at once by a spectrophotometer. The reaction was conducted in 200 ul scale with a 96-well microplate.
# At the same time, the absorbance at 405 nm of each 100, 33, 11, 3.7, 1.2, 0.41, and 0.14 uM pNA solution was measured to obtain the relational formula of pNA concentration and absorbance, and the pNA amount (the substrate cleavage amount) in each reaction solution was calculated.
# As for the inhibition rate, 3 to 4 wells without the test compound were prepared in the same plate. Then, the inhibition rate was calculated and shown in percentage by using the following formula from the proportion of the substrate cleavage amount (B) of the well to which each test compound was added to the average amount (A) of the substrate cleavage amount of the well without the test compound.
# Inhibition rate (%)=100×(1−(B)/(A))
# rat hepatic cells = test: Measurement of autophagy (proteolysis, valine release) by using rat hepatic cells; type: cell-based
# Procedure: Male Wistar rats of 140 to 180 g which were freely fed were used to prepare rat hepatic cells by the collagenase perfusion method (Seglen, P.O. Preparation of isolated liver cells. (1976) In Methods in Cell Biology eds. D. M. Prescott, 13, 29-83. Academic: New York/London). By this method, 2 to 2.5×10^8 cells of the hepatic cells per one individual's […] could be prepared.
# The protein decomposition (autophagy) of the prepared hepatic cells was determined by the method of Venerando, et al. Namely, the hepatic cells were put in a 10 mL flask with 3.5 mL of KRB buffer (24 mM bicarbonate, 6 mM glucose) to prepare a cell suspension (1 to 1.2×10^6 cells/mL). The solution was kept and left in 37° C. for 45 minutes in a carbon dioxide incubator. Then, various chemical treatments were conducted under the existence of 20 uM cycloheximide in order to stop the protein synthesis, and the solution was kept at 37° C. for […]. At each 31 minutes and 42 minutes, 0.35 mL of the hepatic cell suspension was taken out, and a perchloric acid cooled with ice (final concentration 6%) was added to the latter and preserved at −20° C. Valine in the supernatant of the acid-soluble fraction was measured, and valine release for 11 minutes was determined. […]
# [2] = biological target: T2, p103 (rat dipeptidyl peptidase IV, DPP4) (Rattus norvegicus, UniProt P14740); test: Bond of Leu8-MAP to leucine binding protein p103 on the hepatocyte membrane, competition by free amino acids; conditions: excess free amino acid
# T2 construct: from tissue; host or cells: rat hepatocyte membrane
# T2 sequence (P14740 whole entry): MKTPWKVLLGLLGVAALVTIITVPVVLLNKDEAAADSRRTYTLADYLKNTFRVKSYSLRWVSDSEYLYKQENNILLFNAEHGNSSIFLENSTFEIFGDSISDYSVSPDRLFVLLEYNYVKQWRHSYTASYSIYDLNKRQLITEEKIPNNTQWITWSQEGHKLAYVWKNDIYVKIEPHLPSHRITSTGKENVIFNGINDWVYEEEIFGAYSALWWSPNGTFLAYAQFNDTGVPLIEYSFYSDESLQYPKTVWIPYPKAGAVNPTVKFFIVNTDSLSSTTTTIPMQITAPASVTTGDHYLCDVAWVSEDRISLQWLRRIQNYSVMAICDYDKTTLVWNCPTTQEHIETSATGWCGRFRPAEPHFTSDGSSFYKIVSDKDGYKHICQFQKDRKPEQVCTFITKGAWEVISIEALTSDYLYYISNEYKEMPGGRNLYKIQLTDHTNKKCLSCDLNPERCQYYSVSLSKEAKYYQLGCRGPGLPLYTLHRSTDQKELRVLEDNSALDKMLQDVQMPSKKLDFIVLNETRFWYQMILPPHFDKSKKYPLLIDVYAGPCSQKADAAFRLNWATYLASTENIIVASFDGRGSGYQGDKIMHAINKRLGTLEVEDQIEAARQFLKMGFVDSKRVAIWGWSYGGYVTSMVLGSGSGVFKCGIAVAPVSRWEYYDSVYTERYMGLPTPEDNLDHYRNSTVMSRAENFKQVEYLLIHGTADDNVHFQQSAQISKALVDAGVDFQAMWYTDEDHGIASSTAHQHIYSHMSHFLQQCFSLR
# Description: In order to solve the above problems, the inventors attempted to identify leucine binding protein that exists on the membrane of rat hepatic cells by using a membrane-impermeable leucine derivative (Leu8-MAP). As a result of the thorough search, they found a molecular weight of 103-kilodalton leucine-specific binding protein (p103) on the hepatocyte membrane. Though the bond of Leu8-MAP to p103 was inhibited by excess free leucine, it was not inhibited by isoleucine or valine. Therefore, p103 was protein that selectively bonds to leucine. Further, as a result of various examinations on the condition for purifying p103 from the hepatocyte membrane, they succeeded in isolating the above protein by purification and detected it as a single band protein by SDS-PAGE electrophoresis. This band was cleaved from the gel, and peptide fragmentation was conducted thereto by the in-gel reduction/alkylation and the enzyme digestion. Then, the mass spectrometry was conducted by providing the fragment with the equipment wherein a nanoHPLC system (Ultimate: Nippon Dionex K.K.) was connected to an ion trap mass spectrometer (LCQ: Thermo Electron Co., Ltd.). The obtained data was identified with a database search system (Mascot: Matrix Science, Ltd.). MSDB (Jan. 6, 2004 ver. by Matrix Science, Ltd.) was used as the sequence database for search. As a result, rat dipeptidyl peptidase IV (DPP4: EC 3.4.14.5) could be identified at a high score.
# T1 sequence (P27487 whole entry): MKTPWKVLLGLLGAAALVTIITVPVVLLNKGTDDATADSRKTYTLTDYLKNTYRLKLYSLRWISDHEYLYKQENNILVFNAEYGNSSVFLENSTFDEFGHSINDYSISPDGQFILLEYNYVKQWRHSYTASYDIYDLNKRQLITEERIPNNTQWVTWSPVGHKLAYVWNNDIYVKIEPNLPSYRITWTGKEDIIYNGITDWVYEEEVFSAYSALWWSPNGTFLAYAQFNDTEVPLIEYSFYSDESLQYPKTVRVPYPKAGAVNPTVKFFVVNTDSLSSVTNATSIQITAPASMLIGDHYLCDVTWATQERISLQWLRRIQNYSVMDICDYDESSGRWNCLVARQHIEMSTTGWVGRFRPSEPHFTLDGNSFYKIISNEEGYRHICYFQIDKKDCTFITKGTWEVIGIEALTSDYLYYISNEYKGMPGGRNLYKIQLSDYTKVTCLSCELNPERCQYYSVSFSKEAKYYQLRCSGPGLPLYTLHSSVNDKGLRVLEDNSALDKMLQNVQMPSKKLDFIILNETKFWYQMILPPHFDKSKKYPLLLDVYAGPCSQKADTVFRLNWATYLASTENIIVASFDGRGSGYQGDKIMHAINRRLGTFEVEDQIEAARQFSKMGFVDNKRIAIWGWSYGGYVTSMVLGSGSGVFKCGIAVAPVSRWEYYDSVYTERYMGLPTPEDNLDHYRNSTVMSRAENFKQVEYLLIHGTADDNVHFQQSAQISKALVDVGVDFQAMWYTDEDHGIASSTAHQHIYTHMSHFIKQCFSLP
Structure (SMILES),"Dpp4 inhibiting activity among 20 kinds of amino acids (FIG. 2, substrate cleavage rate), in words [1]","inhibition of the bond of Leu8-MAP to p103, in words [2]",also measured
"CC(C)C[C@H](N)C(=O)O [Leucine, L-leucine]",has the Dpp4 inhibiting activity,inhibited,"concentration-dependent Dpp4 inhibiting activity (FIG. 1), in words ([1]; FIG. 1): inhibits Dpp4; effect on autophagy induced by amino acid starvation, in words (rat hepatic cells): strongly inhibits autophagy; Inhibition of proteolysis (%) (rat hepatic cells; starvation induced proteolysis, 20 uM cycloheximide, valine release for 11 minutes): 27.9%"
"CSCC[C@H](N)C(=O)O [Met, L-methionine]",has the Dpp4 inhibiting activity,,
"CC(C)C[C@H](NC(=O)[C@@H](N)CCCCN)C(=O)O [R1=L-Lys, R2=OH, Lys-Leu] (H-Lys-Leu-OH)",,,"Inhibition rate (%) ([1]; test compound 2 mM, 100 uM G-P-pNA, 0.25 ng/ul rhDPP4, 37° C. for 30 minutes): 38.4%"
CC[C@H](C)[C@H](N)C(=O)O [isoleucine],,not inhibited,
CC(C)[C@H](N)C(=O)O [valine],,not inhibited,
